Like-named read-outs stand apart in the source and are kept apart here.
How the values were obtained:
Aβ42 [1] = target: T1, Aβ42 (Homo sapiens, UniProt P05067); assay: ThT-based Aβ42 aggregation kinetics under quiescent (unseeded) conditions; type: biochemical
T1 construct: The recombinant Aβ (M1-42) peptide; made in house; host or cells: E. coli BL21 Gold (DE3)
Description: Solutions of monomeric peptides were prepared by dissolving the lyophilized Aβ42 peptide in 6 M GuHCl. Monomeric forms were purified from potential oligomeric species and salt using a Superdex 75 10/300 GL column (GE Healthcare) at a flowrate of 0.5 mL/min, and were eluted in 20 mM sodium phosphate buffer, pH 8 supplemented with 200 μM EDTA and 0.02% NaN3. The center of the peak was collected and the peptide concentration was determined from the absorbance of the integrated peak area using ε280=1400 l mol^−1 cm^−1. The obtained monomer was diluted with buffer to the desired concentration and supplemented with 20 μM Thioflavin T (ThT) from a 1 mM stock. All samples were prepared in low binding eppendorf tubes on ice using careful pipetting to avoid introduction of air bubbles. Each sample was then pipetted into multiple wells of a 96-well half-area, low-binding, clear bottom and PEG coating plate (Corning 3881), 80 μL per well.
We verified that the addition of 1% DMSO in the reaction mixture has no effect on Aβ42 aggregation.
(§1) Assays were initiated by placing the 96-well plate at 37° C. under quiescent conditions in a plate reader (Fluostar Omega, Fluostar Optima or Fluostar Galaxy, BMGLabtech, Offenburg, Germany). The ThT fluorescence was measured through the bottom of the plate with a 440 nm excitation filter and a 480 nm emission filter. The ThT fluorescence was followed for three repeats of each sample.
The time evolution of the total fibril mass concentration, M(t), is described by the following integrated rate law (30, 32)
(§2) [formula] where the kinetic parameters B±, C±, κ, κ∞ and ? are functions of the two ? combinations of the microscopic rate constants k+k2 and knk2, where kn, k+ and k2 are the primary nucleation, elongation and secondary nucleation rate constants, respectively.
The time evolution of the total fibril mass concentration, M(t), is described by the following integrated rate law
as §2, with “two” for “two ?”, “respectively. Aβ42 alone in 1% DMSO was first modeled to obtain the k+k2 and knk2 combined microscopic rate constants.” for “respectively.”
Target sequence in this assay (P05067 671-713): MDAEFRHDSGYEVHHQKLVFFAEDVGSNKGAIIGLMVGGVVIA
With the introduction of different small molecules, the aggregation process can be inhibited by one or more individual microscopic reactions. Microscopic rate constants k+k2 and knk2 were obtained in the presence of the molecules, and compared to the initial values of Aβ42 alone. This comparison allows one to understand which rate was mainly perturbed, as well as the potency of the compounds (by relative changes of their microscopic rates) with respect to each other.

Aβ42 [2] = target: T1, Aβ42; assay: ThT Aβ42 aggregation kinetics with 10% pre-formed fibril seeds (elongation dominant); type: biochemical; details: 2 μM Aβ42, 10-fold excess
Description: Samples were then collected from the wells into low-binding tubes and sonicated for 2 min in a sonicator bath at room temperature. Under the considered conditions (i.e. 4 μM Aβ42), the monomer concentration is negligible at equilibrium (31). The final concentration of fibrils, in monomer equivalents, was considered equal to the initial concentration of monomer. Fibrils were then added to freshly prepared monomer in order to reach either 5% or 10% fibrils final concentration.
as §1, with “sample. […]” for “sample.”
Target sequence in this assay (P05067 672-713 limits assumed): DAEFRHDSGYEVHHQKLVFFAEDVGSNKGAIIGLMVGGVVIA

Aβ42 fibrils = target: T2, Aβ42 fibrils (Homo sapiens, UniProt P05067); assay: Dot blot assay with fibril-specific OC antibody (label-free fibril formation); type: biochemical; details: 2 μM Aβ42, 4-fold excess
T2 construct: The recombinant Aβ (M1-42) peptide; made in house; host or cells: E. coli BL21 Gold (DE3)
T2 sequence (P05067 672-713 limits assumed): as above
Description: Blotting was performed using either Aβ42 fibril-specific antibody (OC, Millipore) or Aβ42 sequence-specific antibody (W0-2, Millipore). […] Aβ42 aliquots were spotted onto a nitrocellulose membrane (0.2 μm, Whatman) and then the membranes were dried and then blocked with Blocking One (Nacalai tesque) before immuno-detection. OC and W0-2 were used according to the manufacturers instructions. Alexa Fluor® 488-conjugated secondary antibodies (Life technologies) were subsequently added and fluorescence detection was performed using Typhoon Trio Imager (GE Healthcare). […] For the calibration curve (FIG. 3d), a series of dilutions between 4 μM and 0.1 μM were performed on freshly prepared Aβ42 fibrils and 4 μL aliquots were deposited onto the same nitrocellulose membrane (0.2 μm, Whatman) as the one used for OC fibril-specific antibody. […] However, under these conditions we could not detect oligomers due to their very low concentration during Aβ42 aggregation even when depositing on the membrane volumes as high as 20 μL.

[3] = tested on: SH-SY5Y human neuroblastoma cells; type: cell-based; details: 0.5 μM Aβ42, 10 μM bexarotene
Description: Aβ42 oligomers are known to be toxic to cells leading to apoptosis and to cellular death. […] SH-SY5Y human neuroblastoma cells were cultured under standard conditions, at 37° C. in a humidified incubator with 5% CO2. Cells were seeded at a density of 25,000 per well in a white-walled, clear-bottomed 96-well plate and cultured for 24 h in MEM/F12(1:1)/10% Fetal Bovine Serum (FBS) (Gibco). The culture medium was then replaced with pre-warmed phenol red free DMEM without FBS into which the peptide samples or NaPO4 buffer were diluted 1:1. […] The aggregation reaction was set up as above except for the buffer from which NaN3 was removed due to its toxicity. […] All the specified time points correspond to Aβ42 in the lag phase in order to monitor inhibition at the early stage of the aggregation. […] The cells were cultured in the presence of the peptides, buffer and media for further 24 h before the cytotoxic effect was measured.
Cell medium diluted with the same buffer that was used in these experiments was included in some wells in order to evaluate the intrinsic fluorescence of the media and bexarotene.
For the positive control, staurosporine (1 μM) was added to the cells for 2 hours. Caspase-3/7 activity was measured using the Apo-ONE Homogeneous Caspase-3/7 assay (Promega). The fluorogenic caspase-3/7 substrate, rhodamine 110 bis-(N-CBZ-L-aspartyl-L-glutamyl-L-valyl-aspartic acid amide) was diluted 1:100 in the lysis buffer provided and added to the cell medium at a 1:1 ratio. The fluorescence was measured at excitation 480 nm/emission 520 nm in an Optima FluoStar plate reader. In each of the used plates, the toxicity was assessed according to a negative and a positive control.
For comparative purposes between different plates, we normalized the fluorescence values using a parabolic equation (y=ax^b), which corresponds to the evolution of the oligomers as a function of time. Negative and positive controls were set to 1 and 10, respectively. […] Statistical analyses were performed using GraphPad prism 6.0. Results are expressed as mean±SEM.

[4] = 2 μM Aβ42, 4-fold excess of compound

**Q.** With C=C(c1ccc(C(=O)O)cc1)c1cc2c(cc1C)C(C)(C)CCC2(C)C [bexarotene] as the compound, how does the “increase of time to half-completion compared to Aβ42 alone” value (Aβ42 [1]; [4]) read?
**A.** Its value is “factor of two”.

**Q.** What about the “time to half-completion of the aggregation reaction” value (Aβ42 [1]; [4]) of the same compound?
**A.** The value was 4.50 ± 0.06 h.

**Q.** And the “time for which unseeded aggregation was completely inhibited” value (Aβ42 [1]; 2 μM Aβ42, 10-fold excess)?
**A.** The value was 15 h.

**Q.** What about the “effect on secondary pathways (k2k+)” value (Aβ42 [1]; 5 μM Aβ42, 5-25 μM bexarotene) of the same compound?
**A.** Its value is “no (or very little) detectable effect”.

**Q.** And the “primary nucleation rate constant kn” value (Aβ42 [1]; 5 μM Aβ42, 5-25 μM bexarotene)?
**A.** Its value is “specifically decreased”.

**Q.** What about the “effect on Aβ42 aggregation” value (Aβ42 [1]; increasing concentrations of bexarotene) of the same compound?
**A.** Its value is “progressive delay”.

**Q.** And the “effect on aggregation kinetics with 10% fibril seeds” value (Aβ42 [2])?
**A.** The value was “no effect was observed”.

**Q.** What about the “delay in the time required for half-completion of the aggregation process” value (Aβ42 fibrils) of the same compound?
**A.** The value was 2 h.

**Q.** And the “incubation time after which detectable toxic Aβ42 species are formed in presence of compound” value ([3]; 37° C.)?
**A.** The value was 7 h.

**Q.** What about the “toxicity (caspase-3) of Aβ42 species in absence of bexarotene, higher than in its presence” value ([3]; aliquot after 0.3 h incubation) of the same compound?
**A.** The value was 65±5%.

**Q.** What about the “toxicity (caspase-3) of Aβ42 species in absence of bexarotene, higher than in its presence” value ([3]; aliquot after 4 h incubation) of the same compound?
**A.** The value was 65±5%.

**Q.** And the “level of toxicity generated in the presence of bexarotene” value ([3]; aliquot after 7 h incubation)?
**A.** Its value is “increased to a value similar to that observed in its absence”.

Reference: US11536729B2, “Method of identifying novel protein aggregation inhibitors based on chemical kinetics” (Cambridge Enterprise Limited, priority 2016, dated 2022)
